Tested on: CD1 female mouse brain lipidome
Assay: Brain-region lipid levels (HPLC/MS/MS lipidomics) 2 h after single i.p. 3 mg/kg CP 55,940 vs vehicle
Assay type: in vivo
Set-up: N-arachidonoyl phenylalanine level, Mean / N-stearoyl tryptophan level, Mean / N-stearoyl proline level, Mean / N-stearoyl leucine level, Mean / N-stearoyl phenylalanine level, Mean / N-stearoyl serine level, Mean / N-stearoyl methionine level, Mean: unit: moles per gram
Description: The Bloomington Institutional Animal Care and Use Committee of Indiana University reviewed and approved the animal procedures. Female mice from the CD1 strain were utilized to match our study examining THC’s effects on the brain lipidome ([Leishman et al., 2018]). Mice were given a single i.p. injection of either 3 mg/kg CP or 1:1:18 cremophor:ethanol:saline vehicle (please refer to the section “3 mg/kg CP Is Relevant for Synthetic Cannabinoid Abuse and Has Stronger Effects on the Female Mouse Brain Lipidome During Adolescence” for a justification of dose and use of female mice). Three different age groups were given injections: PND 35 and PND 50 adolescents, and adult mice (PND 113). At least eight mice in each age group received CP and at least eight received vehicle. Matching the THC study time course ([Leishman et al., 2018]), mice were sacrificed via rapid decapitation 2 h after injection. Brains were immediately removed and flash-frozen in liquid nitrogen, and then stored at -80°C until dissections were performed. Brains were dissected on an ice-cold dissection plate into the following regions: STR, HIPP, CER, THAL, CTX, HYP, MID, and STEM. These abbreviations for these brain areas will be used exclusively when discussing the results generated by these specific dissections. Each dissected area was immediately placed in liquid nitrogen and then stored at -80°C until used for lipid extraction.
Tissue extracts were performed as previously described ([Bradshaw et al., 2006]; [Stuart et al., 2013]; [Raboune et al., 2014]; [Leishman et al., 2016a],[b], [2017], [2018]). First, samples were shock frozen in liquid nitrogen, weighed, and transferred to a centrifuge tube. The mass of the largest sample was multiplied by 50 to determine how many milliliters of HPLC-grade methanol (Fisher, Fair Lawn, NJ, United States) to add. Then, samples were spiked with 500 pmol deuterium-labeled NAGly (d8NAGly; Cayman Chemical, Ann Arbor, MI, United States). Samples were placed on ice in darkness for 2 h then individually homogenized and centrifuged at 19,000 × g for 20 min at 20°C. Supernatants were diluted with HPLC water (purified in house) to make a solution of 75% water, 25% supernatant. Lipids were partially purified on C18 solid phase extraction columns (Agilent, Palo Alto, CA, United States). A series of four elutions with 1.5 mL of 60%, 75%, 85%, and 100% methanol were collected ([Stuart et al., 2013]; [Leishman et al., 2016a],[b], [2018]).
As previously described ([Bradshaw et al., 2006]; [Tan et al., 2006]; [Smoum et al., 2010]; [Stuart et al., 2013]; [Tortoriello et al., 2013]; [Raboune et al., 2014]; [Leishman et al., 2016a],[b], [2017], [2018]), samples were analyzed using an Applied Biosystems API 3000 triple quadrupole mass spectrometer with electrospray ionization (Foster City, CA, United States). Using an Agilent XDB-C18 reversed phase analytical column and optimized mobile phase gradients, 20 μL from each elution were chromatographed. Two Shimadzu 10ADvp pumps (Columbia, MD, United States) provided the pressure for gradient elution. Mobile phase A: 20% methanol, 80% water (v/v) and 1 mM ammonium acetate (Sigma, St. Louis, MO, United States). Mobile phase B: 100% methanol, 1 mM ammonium acetate. Every method run began with 0% mobile phase B, reached 100% mobile phase B flowing at 0.2 mL/min, and gradually returned to 0% mobile phase B.
This screening library will be referred to as the lipidome when discussing data from this study. HPLC/MS/MS data were analyzed using Analyst software (Applied Biosystems) ([Bradshaw et al., 2006]; [Tan et al., 2006]; [Stuart et al., 2013]; [Tortoriello et al., 2013]; [Raboune et al., 2014]; [Leishman et al., 2016a],[b], [2017], [2018]). Chromatograms (Supplementary Figure 3) were generated by determining the retention time of analytes from the analytical column with a [M-1] or [M+1] parent peak and a fragmentation peak corresponding to the programmed values. […]

[1] = cortex, PND 35, 3 mg/kg CP 55,940
[2] = cortex, PND 35 adolescent female mice, 3 mg/kg CP 55,940
[3] = hippocampus, PND 50, 3 mg/kg CP 55,940 vs Veh

In the case of `CCCCCCC(C)(C)c1ccc([C@@H]2C[C@H](O)CC[C@H]2CCCO)c(O)c1` [CP 55,940], the “N-oleoyl valine Magnitude (x Veh level)” value [1] is reported as 1.33 x Veh level, the “N-palmitoyl leucine Direction (rel to Veh)” value [1] is reported as “↑” and the “N-palmitoyl leucine, Magnitude (x Veh level)” value [1] is reported as 1.52 x Veh level. The “N-palmitoyl serine Direction (rel to Veh)” value [1] was “↓”, the “N-palmitoyl serine, Magnitude (x Veh level)” value [1] was 0.77 x Veh level and the “N-palmitoyl tyrosine Direction (rel to Veh)” value [1] was “↑”. For the same compound, the “N-palmitoyl tyrosine Magnitude (x Veh level)” value [1] was 1.25 x Veh level, the “N-palmitoyl valine Direction (rel to Veh)” value [1] was “↑” and the “N-palmitoyl valine Magnitude (x Veh level)” value [1] was 1.57 x Veh level. The “N-stearoyl serine Direction (rel to Veh)” value [1] was “↓”, the “N-stearoyl serine Magnitude (x Veh level)” value [1] was 0.84 x Veh level and the “N-stearoyl tyrosine Direction (rel to Veh)” value [1] was “↑”. For the same compound, the “N-stearoyl tyrosine Magnitude (x Veh level)” value [1] was 1.46 x Veh level, the “N-stearoyl valine Direction (rel to Veh)” value [1] was “↑” and the “N-stearoyl valine Magnitude (x Veh level)” value [1] was 1.32 x Veh level. For the same compound, the “PGF2α Direction (rel to Veh)” value [1] was “↑”, the “PGF2α Magnitude (x Veh level)” value [1] was 1.19 x Veh level and the “phosphoLEA Direction (rel to Veh)” value [1] was “↑”. For the same compound, the “phosphoLEA Magnitude (x Veh level)” value [1] was 1.51 x Veh level, the “2-arachidonoyl glycerol level, Mean” value [2] was 1.2E-09 and the “2-linoleoyl glycerol level, Mean” value [2] was 1.12E-10. For the same compound, the “2-oleoyl glycerol level, Mean” value [2] was 5.02E-09, the “2-palmitoyl glycerol level, Mean” value [2] was 5.49E-09 and the “6-ketoPGF1α level, Mean” value [2] was 5.64E-12. For the same compound, the “Arachidonic acid level, Mean” value [2] was 1.78E-09, the “Linoleic acid level, Mean” value [2] was 6.06E-10 and the “N- stearoyl valine level, Mean” value [2] was 1.46E-12. For the same compound, the “N-arachidonoyl GABA level, Mean” value [2] was 2.26E-11, the “N-arachidonoyl alanine level, Mean” value [2] was 2.81E-12 and the “N-arachidonoyl dopamine level, Mean” value [2] was “BDL”. The “N-arachidonoyl ethanolamine level, Mean” value [2] was 1.13E-10, the “N-arachidonoyl glycine level, Mean” value [2] was 1.35E-11 and the “N-arachidonoyl methionine level, Mean” value [2] was 2.69E-13. For the same compound, the “N-arachidonoyl phenylalanine level, Mean” value [2] was 7.25E-13, the “N-arachidonoyl proline level, Mean” value [2] was “BDL” and the “N-arachidonoyl serine level, Mean” value [2] was 2.41E-12. For the same compound, the “N-arachidonoyl taurine level, Mean” value [2] was 1.3E-10, the “N-arachidonoyl tryptophan level, Mean” value [2] was “BDL” and the “N-arachidonoyl tyrosine level, Mean” value [2] was 8.47E-13. The “N-docosahexaenoyl GABA level, Mean” value [2] was 4.81E-12, the “N-docosahexaenoyl alanine level, Mean” value [2] was 7.37E-13 and the “N-docosahexaenoyl ethanolamine level, Mean” value [2] was 1.21E-10. For the same compound, the “N-docosahexaenoyl glycine level, Mean” value [2] was 1.18E-12, the “N-docosahexaenoyl leucine level, Mean” value [2] was 1.02E-12 and the “N-docosahexaenoyl phenylalanine level, Mean” value [2] was 5.48E-13. For the same compound, the “N-docosahexaenoyl proline level, Mean” value [2] was “BDL”, the “N-docosahexaenoyl serine level, Mean” value [2] was 5.64E-12 and the “N-docosahexaenoyl tryptophan level, Mean” value [2] was “BDL”. For the same compound, the “N-docosahexaenoyl tyrosine level, Mean” value [2] was 5.7E-13, the “N-docosahexaenoyl valine level, Mean” value [2] was 2.57E-13 and the “N-linoleoyl GABA level, Mean” value [2] was 3.78E-12. The “N-linoleoyl alanine level, Mean” value [2] was 6.3E-13, the “N-linoleoyl ethanolamine level, Mean” value [2] was 2.31E-10 and the “N-linoleoyl glycine level, Mean” value [2] was 3.61E-13. For the same compound, the “N-linoleoyl leucine level, Mean” value [2] was 1.58E-13, the “N-linoleoyl phenylalanine level, Mean” value [2] was 1.48E-13 and the “N-linoleoyl proline level, Mean” value [2] was “BDL”. For the same compound, the “N-linoleoyl serine level, Mean” value [2] was 1.38E-11, the “N-linoleoyl tryptophan level, Mean” value [2] was “BDL” and the “N-nervonoyl valine level, Mean” value [2] was “BDL”. The “N-oleoyl GABA level, Mean” value [2] was 9.1E-12, the “N-oleoyl alanine level, Mean” value [2] was 2.8E-12 and the “N-oleoyl dopamine level, Mean” value [2] was “BDL”. The “N-oleoyl ethanolamine level, Mean” value [2] was 4.68E-10, the “N-oleoyl glycine level, Mean” value [2] was 5.53E-12 and the “N-oleoyl leucine level, Mean” value [2] was 4.34E-13. For the same compound, the “N-oleoyl methionine level, Mean” value [2] was 4.2E-13, the “N-oleoyl phenylalanine level, Mean” value [2] was 2.01E-12 and the “N-oleoyl serine level, Mean” value [2] was 5.9E-11. The “N-oleoyl tyrosine level, Mean” value [2] was 6.76E-13, the “N-oleoyl valine level, Mean” value [2] was 4.65E-13 and the “N-palmitoyl GABA level, Mean” value [2] was 1.28E-11. For the same compound, the “N-palmitoyl alanine level, Mean” value [2] was 4.96E-12, the “N-palmitoyl ethanolamine level, Mean” value [2] was 1.43E-10 and the “N-palmitoyl glycine level, Mean” value [2] was 1.28E-11. The “N-palmitoyl leucine level, Mean” value [2] was 1.76E-12, the “N-palmitoyl methionine level, Mean” value [2] was 1.41E-12 and the “N-palmitoyl phenylalanine level, Mean” value [2] was 3.73E-12. For the same compound, the “N-palmitoyl proline level, Mean” value [2] was 7.7E-14, the “N-palmitoyl serine level, Mean” value [2] was 1.08E-11 and the “N-palmitoyl tryptophan level, Mean” value [2] was 9.75E-13. For the same compound, the “N-palmitoyl tyrosine level, Mean” value [2] was 1.99E-12, the “N-palmitoyl valine level, Mean” value [2] was 1.52E-12 and the “N-stearoyl GABA level, Mean” value [2] was 1.48E-11. The “N-stearoyl alanine level, Mean” value [2] was 1.04E-11, the “N-stearoyl ethanolamine level, Mean” value [2] was 5.63E-11 and the “N-stearoyl glycine level, Mean” value [2] was 7.24E-12. The “N-stearoyl leucine level, Mean” value [2] was 1.55E-12, the “N-stearoyl methionine level, Mean” value [2] was 1.68E-12 and the “N-stearoyl phenylalanine level, Mean” value [2] was 3.37E-12. The “N-stearoyl proline level, Mean” value [2] was 3.31E-14, the “N-stearoyl serine level, Mean” value [2] was 1.35E-11 and the “N-stearoyl tryptophan level, Mean” value [2] was 3.26E-12. The “N-stearoyl tyrosine level, Mean” value [2] was 3.04E-13, the “Oleic acid level, Mean” value [2] was 6.83E-09 and the “PGE2 level, Mean” value [2] was 4.31E-10. For the same compound, the “PhosphoLEA level, Mean” value [2] was 8.98E-12, the “2-linoleoyl glycerol Direction (relative to Veh)” value [3] was “↓” and the “2-linoleoyl glycerol Magnitude (x Veh level)” value [3] was 0.73 x Veh level. The “6-ketoPGF1α Direction (relative to Veh)” value [3] was “↑”, the “6-ketoPGF1α Magnitude (x Veh level)” value [3] was 1.46 x Veh level and the “Linoleic acid, Direction (relative to Veh)” value [3] was “↓”.

From paper PMC6277767, “Broad and Region-Specific Impacts of the Synthetic Cannabinoid CP 55,940 in Adolescent and Adult Female Mouse Brains” (Frontiers in Molecular Neuroscience, 2018)
